Experimental data reported in the NIST ThermoML archive (doi:10.1016/j.fluid.2006.05.007).

Assay: xn = mol fraction of the nth substance listed
Conditions: Fluid (supercritical or subcritical phases)

CO [methanol] + O
Conditions | mass density [kg/m3]
572.91 K, 10085 kPa, x1 = 0.3044 | 77.4
573.08 K, 10068 kPa, x1 = 0.4031 | 79.4
573.15 K, 10080 kPa, x1 = 0.5144 | 83.3
573.26 K, 10081 kPa, x1 = 0.59 | 85.5
573.31 K, 10076 kPa, x1 = 0.7905 | 92.4
573.34 K, 10081 kPa, x1 = 0.8802 | 94.8
573.35 K, 10077 kPa, x1 = 0.6896 | 87.7
573.43 K, 10083 kPa, x1 = 0.0997 | 405
573.46 K, 11526 kPa, x1 = 0.4031 | 107.2
573.49 K, 10078 kPa, x1 = 0.0494 | 679.2
573.52 K, 11527 kPa, x1 = 0.5144 | 108.7
573.63 K, 11542 kPa, x1 = 0.59 | 111.3
573.67 K, 11523 kPa, x1 = 0.6896 | 113.3
573.72 K, 11537 kPa, x1 = 0.0175 | 704.3
573.74 K, 11532 kPa, x1 = 0.7905 | 115.7
573.74 K, 11535 kPa, x1 = 0.8802 | 118.9
573.75 K, 11533 kPa, x1 = 0.007 | 712.1
573.78 K, 11525 kPa, x1 = 0.0997 | 646.8
573.78 K, 11527 kPa, x1 = 0.1971 | 534.3
573.78 K, 11530 kPa, x1 = 0.1484 | 611.5
573.79 K, 11533 kPa, x1 = 0.0494 | 682.1
574.29 K, 20003 kPa, x1 = 0.0997 | 671.8
574.34 K, 20013 kPa, x1 = 0.3044 | 560.2
574.34 K, 20016 kPa, x1 = 0.6896 | 398.6
574.35 K, 20000 kPa, x1 = 0.0494 | 701.9
574.37 K, 19997 kPa, x1 = 0.1484 | 645.8
574.37 K, 20007 kPa, x1 = 0.59 | 431.4
574.37 K, 20014 kPa, x1 = 0.1971 | 617
574.37 K, 20019 kPa, x1 = 0.4031 | 512.2
574.38 K, 20012 kPa, x1 = 0.7905 | 375.2
574.39 K, 20005 kPa, x1 = 0.5144 | 460.1
574.45 K, 20012 kPa, x1 = 0.8802 | 354.5
588.56 K, 13757 kPa, x1 = 0.3044 | 135.3
588.59 K, 13753 kPa, x1 = 0.5144 | 131.6
588.63 K, 13755 kPa, x1 = 0.4031 | 133
588.68 K, 13752 kPa, x1 = 0.7905 | 137.1
588.69 K, 13759 kPa, x1 = 0.59 | 132.6
588.74 K, 13760 kPa, x1 = 0.6896 | 134.8
588.76 K, 13753 kPa, x1 = 0.1971 | 409.6
588.79 K, 13754 kPa, x1 = 0.8802 | 139.5
588.8 K, 13760 kPa, x1 = 0.1484 | 563.2
588.81 K, 13767 kPa, x1 = 0.007 | 679.9
588.83 K, 13755 kPa, x1 = 0.0997 | 606.6
588.84 K, 13753 kPa, x1 = 0.0175 | 672.4
588.85 K, 13755 kPa, x1 = 0.0494 | 647.6
